Results from the supplement of paper PMC4862054.

The compounds below were run on CAL-85-1 (assay: normalised viability (% of control), CellTiter-Blue; higher = more viable cells (about 100 = DMSO control)). Settings: 30 nM; incubation time: 72 h.
In short: (§1)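 Vehicle (100) and a positive kill control (0) anchored the normalisation of each plate, and Z'-factor was used for quality control. Breast cancer cell lines in 20 µl suspension were incubated 72 h over compound in 5 µl medium in 384-well plates, followed by CellTiter-Blue at 560/590 nm. The value is normalised viability at a single listed concentration of the series.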

SMILES	normalised viability
O=C(O)C(=O)O.[NH-][C@@H]1CCCC[C@H]1[NH-].[Pt+2] [Oxaliplatin]	83.2%
Cc1ccc(-c2cc(C(F)(F)F)nn2-c2ccc(S(N)(=O)=O)cc2)cc1 [Celecoxib]	75%
NCCCNCCSP(=O)(O)O [Amifostine]	88%
C[C@H]1C[C@@H]2[C@H]([C@@H](O)C[C@@]3(C)[C@H]2CC[C@]3(O)C(=O)CO)[C@@]2(C)C=CC(=O)C=C12 [Methylprednisolone]	102%
CCc1cncnc1N1CCN(Cc2nc3ccc(C(F)(F)F)cc3[nH]2)CC1	97.4%
Oc1ncc(N(CCCl)CCCl)c(O)n1 [Uracil mustard]	94.2%
CC1=C(/C=C/C(C)=C/C=C/C(C)=C/C(=O)O)C(C)(C)CCC1 [Tretinoin]	92.2%

Same assay, conditions: 100 nM; incubation time: 72 h

SMILES	normalised viability
Nc1nc(F)nc2c1ncn2[C@@H]1O[C@H](CO)[C@@H](O)[C@@H]1O [Fludarabine]	92.8%
O=C(O)C1(C(=O)O)CCC1.[NH2-].[NH2-].[Pt+2] [Carboplatin]	99.6%
N#Cc1ccc(C(c2ccc(C#N)cc2)n2cncn2)cc1 [Letrozole]	87.1%
C1CN1c1nc(N2CC2)nc(N2CC2)n1 [Triethylenemelamine]	108%
CCCS(=O)(=O)Nc1ccc(F)c(C(=O)c2c[nH]c3ncc(-c4ccc(Cl)cc4)cc23)c1F [Vemurafenib]	87.2%
O=C(O)C(=O)O.[NH-][C@@H]1CCCC[C@H]1[NH-].[Pt+2] [Oxaliplatin]	87.3%
Cc1ccc(-c2cc(C(F)(F)F)nn2-c2ccc(S(N)(=O)=O)cc2)cc1 [Celecoxib]	76.7%
NCCCNCCSP(=O)(O)O [Amifostine]	87.2%
C[C@H]1C[C@@H]2[C@H]([C@@H](O)C[C@@]3(C)[C@H]2CC[C@]3(O)C(=O)CO)[C@@]2(C)C=CC(=O)C=C12 [Methylprednisolone]	109%
CCc1cncnc1N1CCN(Cc2nc3ccc(C(F)(F)F)cc3[nH]2)CC1	101%
Oc1ncc(N(CCCl)CCCl)c(O)n1 [Uracil mustard]	96.7%
CC1=C(/C=C/C(C)=C/C=C/C(C)=C/C(=O)O)C(C)(C)CCC1 [Tretinoin]	95.7%

These compounds were tested on BT-549 in the same assay as above. Settings: 1 nM; incubation time: 72 h.
In short: as §1

SMILES	normalised viability
COc1cc2c(Oc3ccc4[nH]c(C)cc4c3F)ncnc2cc1OCCCN1CCCC1 [Cediranib]	108%
C=CC(=O)N1CCC[C@@H](n2nc(-c3ccc(Oc4ccccc4)cc3)c3c(N)ncnc32)C1	96.6%
Cc1cnc(NC(=O)Nc2cc(Br)c(C)cc2OC[C@@H]2CNCCO2)cn1	90.9%

Same assay, conditions: 10 nM; incubation time: 72 h

SMILES	normalised viability
Nc1nc(F)nc2c1ncn2[C@@H]1O[C@H](CO)[C@@H](O)[C@@H]1O [Fludarabine]	85.1%
O=C(O)C1(C(=O)O)CCC1.[NH2-].[NH2-].[Pt+2] [Carboplatin]	83.4%
N#Cc1ccc(C(c2ccc(C#N)cc2)n2cncn2)cc1 [Letrozole]	83.5%
C1CN1c1nc(N2CC2)nc(N2CC2)n1 [Triethylenemelamine]	105%
CCCS(=O)(=O)Nc1ccc(F)c(C(=O)c2c[nH]c3ncc(-c4ccc(Cl)cc4)cc23)c1F [Vemurafenib]	96.4%
O=C(O)C(=O)O.[NH-][C@@H]1CCCC[C@H]1[NH-].[Pt+2] [Oxaliplatin]	93.9%
Cc1ccc(-c2cc(C(F)(F)F)nn2-c2ccc(S(N)(=O)=O)cc2)cc1 [Celecoxib]	86.6%
NCCCNCCSP(=O)(O)O [Amifostine]	81.4%
C[C@H]1C[C@@H]2[C@H]([C@@H](O)C[C@@]3(C)[C@H]2CC[C@]3(O)C(=O)CO)[C@@]2(C)C=CC(=O)C=C12 [Methylprednisolone]	89.4%
CCc1cncnc1N1CCN(Cc2nc3ccc(C(F)(F)F)cc3[nH]2)CC1	78.4%
Oc1ncc(N(CCCl)CCCl)c(O)n1 [Uracil mustard]	93.4%
CC1=C(/C=C/C(C)=C/C=C/C(C)=C/C(=O)O)C(C)(C)CCC1 [Tretinoin]	87.5%

Same assay, conditions: 100 nM; incubation time: 72 h

SMILES	normalised viability
COc1cc2c(Oc3ccc4[nH]c(C)cc4c3F)ncnc2cc1OCCCN1CCCC1 [Cediranib]	104%
C=CC(=O)N1CCC[C@@H](n2nc(-c3ccc(Oc4ccccc4)cc3)c3c(N)ncnc32)C1	109%
Cc1cnc(NC(=O)Nc2cc(Br)c(C)cc2OC[C@@H]2CNCCO2)cn1	96%

Same assay, conditions: 1000 nM; incubation time: 72 h

SMILES	normalised viability
Nc1nc(F)nc2c1ncn2[C@@H]1O[C@H](CO)[C@@H](O)[C@@H]1O [Fludarabine]	97.1%
O=C(O)C1(C(=O)O)CCC1.[NH2-].[NH2-].[Pt+2] [Carboplatin]	92%
N#Cc1ccc(C(c2ccc(C#N)cc2)n2cncn2)cc1 [Letrozole]	84%
C1CN1c1nc(N2CC2)nc(N2CC2)n1 [Triethylenemelamine]	90.9%
CCCS(=O)(=O)Nc1ccc(F)c(C(=O)c2c[nH]c3ncc(-c4ccc(Cl)cc4)cc23)c1F [Vemurafenib]	105%
O=C(O)C(=O)O.[NH-][C@@H]1CCCC[C@H]1[NH-].[Pt+2] [Oxaliplatin]	74.2%
Cc1ccc(-c2cc(C(F)(F)F)nn2-c2ccc(S(N)(=O)=O)cc2)cc1 [Celecoxib]	106%
NCCCNCCSP(=O)(O)O [Amifostine]	96.6%
COc1cc2c(Oc3ccc4[nH]c(C)cc4c3F)ncnc2cc1OCCCN1CCCC1 [Cediranib]	70.8%
C[C@H]1C[C@@H]2[C@H]([C@@H](O)C[C@@]3(C)[C@H]2CC[C@]3(O)C(=O)CO)[C@@]2(C)C=CC(=O)C=C12 [Methylprednisolone]	77.8%
CCc1cncnc1N1CCN(Cc2nc3ccc(C(F)(F)F)cc3[nH]2)CC1	102%
C=CC(=O)N1CCC[C@@H](n2nc(-c3ccc(Oc4ccccc4)cc3)c3c(N)ncnc32)C1	118%
Oc1ncc(N(CCCl)CCCl)c(O)n1 [Uracil mustard]	103%
Cc1cnc(NC(=O)Nc2cc(Br)c(C)cc2OC[C@@H]2CNCCO2)cn1	92%
CC1=C(/C=C/C(C)=C/C=C/C(C)=C/C(=O)O)C(C)(C)CCC1 [Tretinoin]	100%

Same assay, conditions: 10000 nM; incubation time: 72 h

SMILES	normalised viability
Nc1nc(F)nc2c1ncn2[C@@H]1O[C@H](CO)[C@@H](O)[C@@H]1O [Fludarabine]	81.5%
O=C(O)C1(C(=O)O)CCC1.[NH2-].[NH2-].[Pt+2] [Carboplatin]	87.7%
N#Cc1ccc(C(c2ccc(C#N)cc2)n2cncn2)cc1 [Letrozole]	90.5%
C1CN1c1nc(N2CC2)nc(N2CC2)n1 [Triethylenemelamine]	66.7%
CCCS(=O)(=O)Nc1ccc(F)c(C(=O)c2c[nH]c3ncc(-c4ccc(Cl)cc4)cc23)c1F [Vemurafenib]	57.3%
O=C(O)C(=O)O.[NH-][C@@H]1CCCC[C@H]1[NH-].[Pt+2] [Oxaliplatin]	52.6%
Cc1ccc(-c2cc(C(F)(F)F)nn2-c2ccc(S(N)(=O)=O)cc2)cc1 [Celecoxib]	78.4%
NCCCNCCSP(=O)(O)O [Amifostine]	93.3%
C[C@H]1C[C@@H]2[C@H]([C@@H](O)C[C@@]3(C)[C@H]2CC[C@]3(O)C(=O)CO)[C@@]2(C)C=CC(=O)C=C12 [Methylprednisolone]	78.4%
CCc1cncnc1N1CCN(Cc2nc3ccc(C(F)(F)F)cc3[nH]2)CC1	59.9%
Oc1ncc(N(CCCl)CCCl)c(O)n1 [Uracil mustard]	90.6%
CC1=C(/C=C/C(C)=C/C=C/C(C)=C/C(=O)O)C(C)(C)CCC1 [Tretinoin]	106%

Each compound was assayed on CAL-51 in the same assay as above. Settings: 0.3 nM; incubation time: 72 h.
In short: as §1

SMILES	normalised viability
COc1cc2c(Oc3ccc4[nH]c(C)cc4c3F)ncnc2cc1OCCCN1CCCC1 [Cediranib]	90.5%
C=CC(=O)N1CCC[C@@H](n2nc(-c3ccc(Oc4ccccc4)cc3)c3c(N)ncnc32)C1	95.9%
Cc1cnc(NC(=O)Nc2cc(Br)c(C)cc2OC[C@@H]2CNCCO2)cn1	97.8%

Same assay, conditions: 3 nM; incubation time: 72 h

SMILES	normalised viability
Nc1nc(F)nc2c1ncn2[C@@H]1O[C@H](CO)[C@@H](O)[C@@H]1O [Fludarabine]	100%
O=C(O)C1(C(=O)O)CCC1.[NH2-].[NH2-].[Pt+2] [Carboplatin]	104%
N#Cc1ccc(C(c2ccc(C#N)cc2)n2cncn2)cc1 [Letrozole]	115%
C1CN1c1nc(N2CC2)nc(N2CC2)n1 [Triethylenemelamine]	108%
CCCS(=O)(=O)Nc1ccc(F)c(C(=O)c2c[nH]c3ncc(-c4ccc(Cl)cc4)cc23)c1F [Vemurafenib]	102%
O=C(O)C(=O)O.[NH-][C@@H]1CCCC[C@H]1[NH-].[Pt+2] [Oxaliplatin]	97.9%
Cc1ccc(-c2cc(C(F)(F)F)nn2-c2ccc(S(N)(=O)=O)cc2)cc1 [Celecoxib]	99%
NCCCNCCSP(=O)(O)O [Amifostine]	113%
COc1cc2c(Oc3ccc4[nH]c(C)cc4c3F)ncnc2cc1OCCCN1CCCC1 [Cediranib]	88.7%
C[C@H]1C[C@@H]2[C@H]([C@@H](O)C[C@@]3(C)[C@H]2CC[C@]3(O)C(=O)CO)[C@@]2(C)C=CC(=O)C=C12 [Methylprednisolone]	100%
CCc1cncnc1N1CCN(Cc2nc3ccc(C(F)(F)F)cc3[nH]2)CC1	94.3%
C=CC(=O)N1CCC[C@@H](n2nc(-c3ccc(Oc4ccccc4)cc3)c3c(N)ncnc32)C1	91%
Oc1ncc(N(CCCl)CCCl)c(O)n1 [Uracil mustard]	96.7%
Cc1cnc(NC(=O)Nc2cc(Br)c(C)cc2OC[C@@H]2CNCCO2)cn1	85.7%
CC1=C(/C=C/C(C)=C/C=C/C(C)=C/C(=O)O)C(C)(C)CCC1 [Tretinoin]	106%

Same assay, conditions: 10 nM; incubation time: 72 h

SMILES	normalised viability
COc1cc2c(Oc3ccc4[nH]c(C)cc4c3F)ncnc2cc1OCCCN1CCCC1 [Cediranib]	88.6%
C=CC(=O)N1CCC[C@@H](n2nc(-c3ccc(Oc4ccccc4)cc3)c3c(N)ncnc32)C1	94.3%
Cc1cnc(NC(=O)Nc2cc(Br)c(C)cc2OC[C@@H]2CNCCO2)cn1	93.1%

Same assay, conditions: 30 nM; incubation time: 72 h

SMILES	normalised viability
Nc1nc(F)nc2c1ncn2[C@@H]1O[C@H](CO)[C@@H](O)[C@@H]1O [Fludarabine]	101%
O=C(O)C1(C(=O)O)CCC1.[NH2-].[NH2-].[Pt+2] [Carboplatin]	99%
N#Cc1ccc(C(c2ccc(C#N)cc2)n2cncn2)cc1 [Letrozole]	107%
C1CN1c1nc(N2CC2)nc(N2CC2)n1 [Triethylenemelamine]	106%
CCCS(=O)(=O)Nc1ccc(F)c(C(=O)c2c[nH]c3ncc(-c4ccc(Cl)cc4)cc23)c1F [Vemurafenib]	95.4%
O=C(O)C(=O)O.[NH-][C@@H]1CCCC[C@H]1[NH-].[Pt+2] [Oxaliplatin]	92.2%
Cc1ccc(-c2cc(C(F)(F)F)nn2-c2ccc(S(N)(=O)=O)cc2)cc1 [Celecoxib]	98.3%
NCCCNCCSP(=O)(O)O [Amifostine]	106%
C[C@H]1C[C@@H]2[C@H]([C@@H](O)C[C@@]3(C)[C@H]2CC[C@]3(O)C(=O)CO)[C@@]2(C)C=CC(=O)C=C12 [Methylprednisolone]	100%
CCc1cncnc1N1CCN(Cc2nc3ccc(C(F)(F)F)cc3[nH]2)CC1	90%
Oc1ncc(N(CCCl)CCCl)c(O)n1 [Uracil mustard]	96.7%
CC1=C(/C=C/C(C)=C/C=C/C(C)=C/C(=O)O)C(C)(C)CCC1 [Tretinoin]	94.6%

Same assay, conditions: 100 nM; incubation time: 72 h

SMILES	normalised viability
Nc1nc(F)nc2c1ncn2[C@@H]1O[C@H](CO)[C@@H](O)[C@@H]1O [Fludarabine]	91.9%
O=C(O)C1(C(=O)O)CCC1.[NH2-].[NH2-].[Pt+2] [Carboplatin]	96.2%
N#Cc1ccc(C(c2ccc(C#N)cc2)n2cncn2)cc1 [Letrozole]	103%
C1CN1c1nc(N2CC2)nc(N2CC2)n1 [Triethylenemelamine]	97.4%
CCCS(=O)(=O)Nc1ccc(F)c(C(=O)c2c[nH]c3ncc(-c4ccc(Cl)cc4)cc23)c1F [Vemurafenib]	92.9%
O=C(O)C(=O)O.[NH-][C@@H]1CCCC[C@H]1[NH-].[Pt+2] [Oxaliplatin]	94.9%
Cc1ccc(-c2cc(C(F)(F)F)nn2-c2ccc(S(N)(=O)=O)cc2)cc1 [Celecoxib]	94.4%
NCCCNCCSP(=O)(O)O [Amifostine]	107%
C[C@H]1C[C@@H]2[C@H]([C@@H](O)C[C@@]3(C)[C@H]2CC[C@]3(O)C(=O)CO)[C@@]2(C)C=CC(=O)C=C12 [Methylprednisolone]	98.2%
CCc1cncnc1N1CCN(Cc2nc3ccc(C(F)(F)F)cc3[nH]2)CC1	91.5%
Oc1ncc(N(CCCl)CCCl)c(O)n1 [Uracil mustard]	95.7%
CC1=C(/C=C/C(C)=C/C=C/C(C)=C/C(=O)O)C(C)(C)CCC1 [Tretinoin]	99.6%

Each compound was assayed on CAL-148 in the same assay as above. Settings: 0.3 nM; incubation time: 72 h.
In short: as §1

SMILES	normalised viability
COc1cc2c(Oc3ccc4[nH]c(C)cc4c3F)ncnc2cc1OCCCN1CCCC1 [Cediranib]	103%
